Source: US20220185832A1, “CD73 INHIBITORS” (BioArdis LLC, priority 2019, published 2022)
pIC50: −log10 of the molar value.

Key:
[1] = molecular target: T1, Recombinant Human 5′-Nucleotidase (CD73) (Homo sapiens, UniProt P21589); test: CD73 Enzyme Assay; format: biochemical; settings: 0.5 nM human CD73, 30 μM AMP, PiColorLock phosphate detection, OD 635 nm; read-out: Potency (IC50)
T1 construct: CHO derived CD73 (Trp27-Lys547), with a C-terminal 6-His tag; 6-His (C); purchased R&D 5795-EN; host or cells: CHO
T1 sequence (P21589 27-547): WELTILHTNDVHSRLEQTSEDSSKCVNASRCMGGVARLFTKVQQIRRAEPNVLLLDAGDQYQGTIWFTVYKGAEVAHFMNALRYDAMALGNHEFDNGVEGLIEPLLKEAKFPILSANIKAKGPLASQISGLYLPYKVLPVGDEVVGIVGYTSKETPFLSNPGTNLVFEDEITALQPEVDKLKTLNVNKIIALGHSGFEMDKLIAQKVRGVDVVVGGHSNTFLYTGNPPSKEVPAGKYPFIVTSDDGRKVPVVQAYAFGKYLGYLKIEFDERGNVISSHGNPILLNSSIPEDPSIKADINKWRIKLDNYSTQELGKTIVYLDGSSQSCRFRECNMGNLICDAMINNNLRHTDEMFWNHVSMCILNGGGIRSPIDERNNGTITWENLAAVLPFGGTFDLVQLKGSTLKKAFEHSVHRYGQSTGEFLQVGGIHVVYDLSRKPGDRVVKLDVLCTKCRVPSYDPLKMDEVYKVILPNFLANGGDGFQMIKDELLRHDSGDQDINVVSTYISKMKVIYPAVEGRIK
Source text: Soluble recombinant CD73 catalyzes the conversion of adenosine monophosphate (AMP) to adenosine and inorganic phosphate. The phosphate detection reagent, PiColorLock™ (Innova Bioscience, Cat #303-0125) is based on the change in absorbance of the dye malachite green in the presence of inorganic phosphate (Pi) and this property can be exploited to measure any enzyme that generates Pi. Recombinant Human 5′-Nucleotidase (CD73) (R&D #5795-EN, CHO derived CD73 (Trp27-Lys547), with a C-terminal 6-His tag) was used in the enzymatic assay. This assay was run in a 384-well plate format (Corning® NBS™ 384 well plates, Cat #3640). The basic assay procedure involves two steps: 1) Enzyme reaction: The CD73 enzyme (R&D #5795-EN) is incubated in the presence or absence of compounds. AMP (sigma, cat #01930) is added to start the kinase reaction. 2) Detection step: “Gold mix” is added to the assay system, then stabilizers are added. After incubation the absorbance of the solution is read at OD 635 nm. The recorded OD signal is proportional to the enzyme activity.
Briefly, 25 μl human CD73 (0.5 nM final concentration) in the enzymatic buffer solutions (20 mM Tris, 25 mM NaCl, 1 mM MgCl2, pH 7.5, 0.005% Tween-20) were mixed with various concentrations of the test compound (dissolved in 100% DMSO). These solutions were incubated for 15 min at 25° C., and subsequently 25 μl AMP (30 μM final concentration) was added to start the reaction. The final reaction mixture of enzyme-substrate-compound was incubated for 20 min at 37° C. Meanwhile, “Gold mix” was prepared shortly before use by adding 1/100 vol. of accelerator to the PiColorLock™ Gold reagent. 12 μL/well of the “Gold mix” was added to assay plate containing 50 μL enzyme reaction buffer and incubated at 25° C. for 5 min. 5 μL/well stabilizer was added to the assay plate and incubated at 25° C. for 30 min. The absorbance of the well solutions was measured at 635 nm on a Spark 10M instrument (TECAN).
(§1) The percent (%) inhibition at each concentration of a compound was calculated relative to the OD value in the Max and Min control wells contained within each assay plate. The Max control wells contained enzyme and substrate as 0% inhibition, and the Min control wells only contained substrate without enzyme as 100% inhibition. The concentrations and percent inhibition values for a test compound are plotted and the concentration of the compound required to achieve 50% inhibition (IC50) was determined with a four-parameter logistic dose response equation.

[2] = molecular target: T2, Cell surface CD73 of U87 MG human glioblastoma cells (Homo sapiens, UniProt P21589); test: CD73 Cellular Assay; format: cell-based; settings: 5000 cells per well, 30 μM AMP, PiColorLock phosphate detection in supernatant, read-out: Potency (IC50)
T2 construct: Cell surface CD73 catalyzes the conversion of adenosine monophosphate (AMP) to adenosine and inorganic phosphate; endogenous in cells; host or cells: U87 MG human glioblastoma cells
T2 sequence (P21589 27-549): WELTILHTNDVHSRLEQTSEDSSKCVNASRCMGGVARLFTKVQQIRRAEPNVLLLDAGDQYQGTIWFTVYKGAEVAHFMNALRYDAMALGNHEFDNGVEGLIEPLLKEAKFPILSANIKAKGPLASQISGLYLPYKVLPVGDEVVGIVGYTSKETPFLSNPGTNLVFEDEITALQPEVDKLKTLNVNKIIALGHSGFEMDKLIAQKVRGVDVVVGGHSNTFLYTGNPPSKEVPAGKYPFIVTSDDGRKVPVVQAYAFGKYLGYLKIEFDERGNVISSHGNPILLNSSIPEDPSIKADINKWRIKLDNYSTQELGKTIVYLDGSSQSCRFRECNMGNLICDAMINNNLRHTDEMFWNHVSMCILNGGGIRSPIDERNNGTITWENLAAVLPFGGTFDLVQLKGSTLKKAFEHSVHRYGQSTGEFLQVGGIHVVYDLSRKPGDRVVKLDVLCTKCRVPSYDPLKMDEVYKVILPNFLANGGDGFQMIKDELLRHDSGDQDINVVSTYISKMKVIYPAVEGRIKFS
Description: Cell surface CD73 catalyzes the conversion of adenosine monophosphate (AMP) to adenosine and inorganic phosphate. U87 MG human glioblastoma cells express high level of CD73. Cells are treated with compounds in a 96-well assay plate and supernatants are collected into a 384-well detection plate. The concentration of inorganic phosphate (Pi) in the supernatants is determined using the phosphate detection reagent, PiColorLock™ (Innova Bioscience, Cat #303-0125) following the manufacturer's instructions.
Briefly, on the day of the assay, U87 MG cells were harvested and resuspended in assay buffer which consisted of 20 mM HEPES, pH=7.4, 137 mM NaCl, 5.4 mM KCl, 1.3 mM CaCl2, 4.2 mM NaHCO3 and 0.1% glucose. To test the effect of compounds on cellular CD73 enzymatic activity, 500 nL/well of compounds dissolved in DMSO were added to a 96-well TC-treated microplate (Corning #3599). Next, 80 μL/well of U87 MG cells in assay buffer were added to assay plate. After 30 minutes of incubation in an atmosphere of 5% CO2 at 37° C., 20 μL/well of 150 μM AMP (Adenosine 5′-monophosphate monohydrate, Sigma, Cat #01930) in assay buffer was added to assay plate. Final assay conditions consisted of 5000 cells per well in 0.5% DMSO and 30 μM AMP substrate. After 50 minutes of incubation in an atmosphere of 5% CO2 at 37° C., 50 μL/well of supernatant was transferred to the 384-well detection plate (Corning® NBSTM 384 well plates, Cat #3640). Meanwhile “Gold mix” was prepared shortly before use by adding 1/100 volume of accelerator to the PiColorLock™ Gold reagent. 12 μL/well of the “Gold mix” was added to detection plate containing 50 μL/well of supernatant and incubated at 25° C. for 5 minutes. 5 μL/well stabilizer was added to the detection plate and incubated at 25° C. for 30 minutes. The absorbance at 635 nm was measured on a Spark 10M instrument (TECAN).
as §1, with “cells” for “enzyme”, “cells” for “substrate without enzyme”

| Structure (SMILES) | pIC50 [1] | pIC50 [2] |
| --- | --- | --- |
| O=P(O)(O)CP(=O)(O)OC[C@H]1O[C@@H](c2ccc3c(NCc4ccccc4)nc(Cl)nc3c2)[C@H](O)[C@@H]1O [Compound 1, (((((2R,3S,4R,5S)-5-(4-(benzylamino)-2-chloroquinazolin-7-yl)-3,4-dihydroxytetrahydrofuran-2-yl)methoxy)(hydroxy)phosphoryl)methyl)phosphonic acid] | 7.00 to 8.00 | > 8.00 |
| O=P(O)(O)CP(=O)(O)OC[C@H]1O[C@@H](c2ccc3c(NCCc4ccccc4)nc(Cl)nc3c2)[C@H](O)[C@@H]1O [Compound 2, (((((2R,3S,4R,5S)-5-(2-chloro-4-(phenethylamino)quinazolin-7-yl)-3,4-dihydroxytetrahydrofuran-2-yl)methoxy)(hydroxy)phosphoryl)methyl)phosphonic acid] | 7.00 to 8.00 | > 8.00 |
| CN(c1nc(Cl)nc2cc([C@@H]3O[C@H](COP(=O)(O)CP(=O)(O)O)[C@@H](O)[C@H]3O)ccc12)C1CCCC1 [Compound 3, (((((2R,3S,4R,5S)-5-(2-chloro-4-(cyclopentyl(methyl)amino)quinazolin-7-yl)-3,4-dihydroxytetrahydrofuran-2-yl)methoxy)(hydroxy)phosphoryl)methyl)phosphonic acid] | 7.00 to 8.00 | > 8.00 |
| O=P(O)(O)CP(=O)(O)OC[C@H]1O[C@@H](c2ccc3c(NC4CCCC4)nc(Cl)nc3c2)[C@H](O)[C@@H]1O [Compound 4, (((((2R,3S,4R,5S)-5-(2-chloro-4-(cyclopentylamino)quinazolin-7-yl)-3,4-dihydroxytetrahydrofuran-2-yl)methoxy)(hydroxy)phosphoryl)methyl)phosphonic acid] | > 8.00 | > 8.00 |
| O=P(O)(O)CP(=O)(O)OC[C@H]1O[C@@H](c2ccc3c(N[C@@H]4CCOC4)nc(Cl)nc3c2)[C@H](O)[C@@H]1O [Compound 38, (((((2R,3S,4R,5S)-5-(2-chloro-4-(((R)-tetrahydrofuran-3-yl)amino)quinazolin-7-yl)-3,4-dihydroxytetrahydrofuran-2-yl)methoxy)(hydroxy)phosphoryl)methyl)phosphonic acid] | 7.00 to 8.00 |  |
| O=P(O)(O)CP(=O)(O)OC[C@H]1O[C@@H](c2ccc3c(NC4CCCC4)nc(C4CC4)nc3c2)[C@H](O)[C@@H]1O [Compound 39, (((((2R,3S,4R,5S)-5-(4-(cyclopentylamino)-2-cyclopropylquinazolin-7-yl)-3,4-dihydroxytetrahydrofuran-2-yl)methoxy)(hydroxy)phosphoryl)methyl)phosphonic acid] | 7.00 to 8.00 |  |
| O=P(O)(O)CP(=O)(O)OC[C@H]1O[C@@H](c2cnc3c(NC4CCCC4)nc(Cl)nc3c2)[C@H](O)[C@@H]1O [Compound 40, (((((2R,3S,4R,5S)-5-(2-chloro-4-(cyclopentylamino)pyrido[3,2-d]pyrimidin-7-yl)-3,4-dihydroxytetrahydrofuran-2-yl)methoxy)(hydroxy)phosphoryl)methyl)phosphonic acid] | 7.00 to 8.00 |  |
| CN(c1nc(Cl)nc2cc([C@@H]3O[C@H](COP(=O)(O)CP(=O)(O)O)[C@@H](O)[C@H]3O)cnc12)C1CCCC1 [Compound 41, (((((2R,3S,4R,5S)-5-(2-chloro-4-(cyclopentyl(methyl)amino)pyrido[3,2-d]pyrimidin-7-yl)-3,4-dihydroxytetrahydrofuran-2-yl)methoxy)(hydroxy)phosphoryl)methyl)phosphonic acid] | 7.00 to 8.00 |  |
| O=P(O)(O)CP(=O)(O)OC[C@H]1O[C@@H](c2ccc3c(NCC4CCC(O)CC4)nc(Cl)nc3c2)[C@H](O)[C@@H]1O (stereo partly drawn) [Compound 42, (((((2R,3S,4R,5S)-5-(2-chloro-4-(((4-hydroxycyclohexyl)methyl)amino)quinazolin-7-yl)-3,4-dihydroxytetrahydrofuran-2-yl)methoxy)(hydroxy)phosphoryl)methyl)phosphonic acid] | 7.00 to 8.00 |  |
| O=P(O)(O)CP(=O)(O)OC[C@H]1O[C@@H](c2ccc3c(NCC4CC(O)C4)nc(Cl)nc3c2)[C@H](O)[C@@H]1O (stereo partly drawn) [Compound 44, (((((2R,3S,4R,5S)-5-(2-chloro-4-(((3-hydroxycyclobutyl)methyl)amino)quinazolin-7-yl)-3,4-dihydroxytetrahydrofuran-2-yl)methoxy)(hydroxy)phosphoryl)methyl)phosphonic acid] | 7.00 to 8.00 |  |
| O=P(O)(O)CP(=O)(O)OC[C@H]1O[C@@H](c2ccc3c(NCc4ccccc4)nc(C4CC4)nc3c2)[C@H](O)[C@@H]1O [Compound 45, (((((2R,3S,4R,5S)-5-(4-(benzylamino)-2-cyclopropylquinazolin-7-yl)-3,4-dihydroxytetrahydrofuran-2-yl)methoxy)(hydroxy)phosphoryl)methyl)phosphonic acid] | 7.00 to 8.00 |  |
